Test results reported in publication PMC9224243, “Palmitic Amide Triggers Virus Life Cycle via Enhancing Host Energy Metabolism” (Frontiers in Microbiology, 2022).

Test system: T1, acetate kinase
T1 construct: gene ackA; purified recombinant acetate kinase
Experiment: ITC at […]°C ([…] protein, […] compound); also bead pull-down with MS and Western blot, and increased activity of the purified enzyme at […]
Format: binding, Geobacillus sp. E263

For `CCCCCCCCCCCCCCCC(N)=O` [palmitic amide], the Kd was 13.2 ± 28.1 µM.
